Our source for the IC50 values is patent US20230111768A1 (Razi University, priority 2021, published 2023).

The structures appear in SMILES notation.

Holding throughout (type): cell-based
The test system of one test is A-431 cell line. As to the kind of experiment: MTT assay on A-431 cell line. The settings on record: Homo sapiens, after 24 hours of treatment, epidermoid carcinoma cell line. Here is the method:
(§1) In this example, anti-cancer activity of benzo[4,5]imidazo[2,1-b]pyrimido[4,5-d][1,3]thiazine-2,4(3H)-dione and benzo[4,5]imidazo[2,1-b][1,3]thiazin-4-one was evaluated on A-431 cell line (an exemplary epidermoid carcinoma cell line), PC-3 cell line (an exemplary classical prostate cancer cell line), PANC-1 cell line (an exemplary pancreas ductal adenocarcinoma cell line)) by conducting an exemplary […] (MTT) assay. Cytotoxic effect of benzo[4,5]imidazo[2,1-b]pyrimido[4,5-d][1,3]thiazine-2,4(3H)-dione and benzo[4,5]imidazo[2,1-b][1,3]thiazin-4-one was also evaluated on Human Dermal Fibroblasts (HDF) cell line (an exemplary normal, human, adult cell line).
(§2) Meanwhile, the A-431, PC-3, and PANC-1 cell lines were tested by MTT assay after being cultured in DMSO with a concentration of about 1% (v/v) and Etoposide (an anti-cancer chemotherapy drug) as negative and positive controls, respectively. […] “IC50” may refer to a concentration of a compound that may inhibit cell growth and proliferation by 50%.

The subject of the next test is PANC-1 cell line. As to the kind of experiment: MTT assay on PANC-1 cell line. Particulars: Homo sapiens, after 24 hours of treatment, pancreas ductal adenocarcinoma cell line. The procedure:
as §1, §2

The subject of the next test is PC-3 cell line. Nature of the test: MTT assay on PC-3 cell line. Particulars: Homo sapiens, after 24 hours of treatment, prostate cancer cell line. Here is the method:
as §1, §2

Test [1] concerns Human Dermal Fibroblasts (HDF) cell line. As to the kind of experiment: MTT assay, cytotoxic effect on Human Dermal Fibroblasts (HDF) cell line. Particulars: after 24 hours of treatment, normal human adult cell line. Here is the method: as §1, §2

What is called IC50 is the point on the concentration scale where inhibition reaches its midpoint. Read a high IC50 as a need for much substance. For `Cc1ccc(C2=C3C(=O)N(C)C(=O)N(C)C3n3c(nc4ccccc43)S2)cc1` (centres unmarked), the IC50 is 25.3 µM with A-431 cell line, 24.6 µM in the test with PANC-1 cell line, 31.9 µM with PC-3 cell line and more than 100 µM in test [1].

Turning to `COc1cc([C@@H]2c3cc4c(cc3[C@@H](O[C@@H]3O[C@@H]5CO[C@@H](C)O[C@H]5[C@H](O)[C@H]3O)[C@H]3COC(=O)[C@H]23)OCO4)cc(OC)c1O` [Etoposide, reference compound], the concentration for half-maximal inhibition (IC50) in the test with A-431 cell line was 27 µM; in the test with PANC-1 cell line it was 32.2 µM; in the test on PC-3 cell line, 25.2 µM; in test [1], more than 100 µM.
